According to USRE38424E1 (The United States of America as represented by the …, priority 1994, dated 2004):
“And” between values parts separate entries of the source, which are not always exact repeats. Equal entries are not always repeated. Where two headings read alike, the source gives them in different places.

Assays:
[1] = tested on: recurrent advanced stage epithelial ovarian cancer; test: Phase II dose intense taxol with G-CSF support: disease response and survival; assay type: in vivo, human
Excerpt: A total of 47 patients were included in this study. All patients had recurrent advanced stage epithelial ovarian cancer confirmed on histologic review at the Laboratory of Pathology, National Cancer Institute (NCI). Borderline, mixed, and germ cell histologies were excluded.
A complete response (CR) was defined as patients having a complete resolution of disease as determined by both physical and radiographic examination as well as normalization of CA-125 lasting at least 4 weeks. A partial response (PR) patient was defined as having a greater than 50% reduction in the sum of the products of bidimensional measurements of all sites of disease as determined by both physical and radiographic analysis which lasted at least 4 weeks, and wherein no development of new lesions was observed. A minor response (MR) patient was defined as having greater than 25% but less than 50% reduction in the sum of the products of the perpendicular diameters of all measurable lesions and wherein no new sites of disease were observed. A stable disease (SD) was defined as patients having less than a 25% increase or less than a 25% reduction in sum of the product of the perpendicular diameters of all measurable lesions in response to therapy, without development of new lesions, for at least 4 weeks. Progressive disease (PD) was defined as patients having an increase of at least 25% in the sum of the products of the perpendicular diameters of all measurable lesions and/or the development of new lesions.
CA-125 levels were followed in all patients but were not used to define a patient's response except in one situation.

[2] = tested on: epithelial ovarian cancer; test: Phase I taxol dose escalation with G-CSF support: disease response; assay type: in vivo, human
Protocol: Patients with histologically proven epithelial ovarian cancer with bidimensionally measurable disease were candidates for the study.
All patients received subsequent cycles of therapy on the general medical oncology in-patient ward.
A G-CSF dose of 10 μg/kg/day was used. […] This was determined by checking WBC and platelet counts on a twice weekly basis.
Patients who had normalization of serum CA-125 levels and complete resolution of all assessable disease confirmed at peritoneoscopy Were assessed as having a clinical complete response to therapy (CCR). A partial response (PR) was designated for individuals experiencing a greater than 50% reduction in the sum of the products of the greatest perpendicular diameters of all measurable lesions that lasted at least one month. A minor response (MR) was defined as a greater than 25% but less than 50% reduction in the sum of the products of the greatest perpendicular diameters of all measurable lesions lasting at least one month. Patients with a less than 25% reduction in tumor volume after two cycles of therapy were considered to be nonresponders and were taken off therapy. Patients who experienced greater than 25% reduction in tumor volume and/or a more than 50% reduction in CA-125 level received two cycles beyond maximal response. Patients with CCR received two cycles beyond peritoneoscopy.

[3] = tested on: ovarian cancer; conditions: cited from earlier work; for Response rate: taxol without G-CSF
[4] = tested on: ovarian cancer; test: Published studies of taxol without G-CSF: response rate; assay type: in vivo, human; conditions: 33 of 110 patients
Excerpt: This agent is derived from the bark of the Western Yew tree, taxus brevifolia (Chabner, PPO Update, 5 (9), 1-10 (1991); Rowinsky et al., J. Nat'Cancer Inst., 82, 1247-1259 (1990)).

[5] = Nerve conduction studies in two patients with grade 3 polyneuropathy; conditions: for MAP Amplitude Percent Decrement / MAP Amplitude Lowest on Taxol: Motor; for SAP Amplitude Percent Decrement / SAP Amplitude Lowest on Taxol: Sensory
Protocol: In two of these patients who developed clinical evidence of neuropathy, the studies were repeated on three occasions in case 1 and once in case 2. In all 12 patients, maximal motor and sensory conduction velocities and response amplitudes were recorded for the median or ulnar nerve in the upper limb and for the peroneal and sural nerves in the lower limb.

[6] = dose intense taxol with G-CSF, 44 assessable patients
[7] = dose intense taxol with G-CSF, 44 assessable patients, listed as taxol
[8] = nineteen patients treated until CR or progression
[9] = Totals, all dose levels 170-300 mg/m^2, 14 patients assessable
[10] = Totals, all dose levels 170-300 mg/m^2, 14 patients assessable, listed as taxol
[11] = taxol 170 mg/m^2, 2 patients assessable
[12] = taxol 200 mg/m^2, 3 patients assessable
[13] = taxol 250 mg/m^2, 6 patients assessable
[14] = taxol 300 mg/m^2, 3 patients assessable

## CC(=O)O[C@H]1C(=O)[C@@]2(C)[C@H]([C@H](OC(=O)c3ccccc3)[C@]3(O)C[C@H](OC(=O)[C@H](O)[C@@H](NC(=O)c4ccccc4)c4ccccc4)C(C)=C1C3(C)C)[C@]1(OC(C)=O)CO[C@@H]1C[C@@H]2O [Taxol, taxol]
[1]; 21/44, 95% CI: 33-63%, taxol 250 mg/m^2/21 days with G-CSF
  Overall objective response rate: 48%
[1]; 95% confidence interval, 25-67%
  Survival at one year: 45.3%
[1]; Kaplan-Meier, phase II
  Median survival time: 11.5 months
[1]; [6]
  CR, % of Cohort: 14%
  CR, No. of Patients: 6
  MR, % of Cohort: 11%
  MR, No. of Patients: 5
  NR, % of Cohort: 25%
  NR, No. of Patients: 11
  PR, % of Cohort: 34%
  PR, No. of Patients: 15
[1]; [7]
  CR, No. of Patients: Six
  MR, No. of Patients: five
  PR, No. of Patients: Fifteen
[1]; [8]
  Median number of cycles required to reach an objective response: four
  Number of cycles required to reach an objective response, range: two to eight
[1]; taxol about 250 mg/m^2/ 21 days
  Objective response rate: about 50%
[1]; taxol about 250 mg/m^2/ 21 days vs standard dose
  Increase in the response rate versus standard dose: 67%
[2]; Five of 14 assessable patients, all dose levels
  Patients with an objective response to therapy: 36%
[2]; [9]
  No. CCR (clinical complete response): 1
  No. MR (minor response): 5
  No. NR (no response; progressive disease on therapy): 4
  No. PR (partial response): 4
[2]; [10]
  No. CCR (clinical complete response): one
  No. MR (minor response): Five
  No. NR (no response; progressive disease on therapy): Four
  No. PR (partial response): four
[2]; five patients
  Reductions in tumor mass in patients with a minor response: 30% to 46%
[2]; phase I, individual PR patients
  Response durations for PR: 30 weeks and ≥ 25 weeks and ≥ 23 weeks and 11 weeks
[2]; phase I, the one CCR patient
  Response duration for CCR: ≥ 30 weeks
[2]; [11]
  No. NR (no response): 1
  No. PR (partial response): 1
[2]; [12]
  No. CCR (clinical complete response): 1
  No. MR (minor response): 1
  No. NR (no response): 1
[2]; [13]
  No. MR (minor response): 3
  No. NR (no response): 2
  No. PR (partial response): 2
[2]; [14]
  No. MR (minor response): 1
  No. PR (partial response): 2
[3]; "standard" dose of taxol (about 135 mg/m^2/ 21 days)
  Objective response rate: about 30%
[3]; Einzig et al.
  Response rate: 21%
[3]; Gynecologic Oncology Group (Thigpen et al.)
  Response rate: 36%
[3]; McGuire et al.
  Response rate: 33%
[3]; taxol 110 to 200 mg/m^2, cisplatin-sensitive and cisplatin-resistant advanced stage epithelial ovarian cancer
  Patients with objective responses: about 30%
[4]
  Response rate, three combined studies: 30%
[5]; Median nerve, case 2
  MAP Amplitude Percent Decrement: None
  SAP Amplitude Percent Decrement: 13%
[5]; Median nerve, case 2, control 10.5 mV
  MAP Amplitude Lowest on Taxol: 10.8 mV
[5]; Peroneal nerve, case 1
  MAP Amplitude Percent Decrement: 49%
[5]; Peroneal nerve, case 1, control 3.9 mV
  MAP Amplitude Lowest on Taxol: 1.9 mV
[5]; Peroneal nerve, case 2
  MAP Amplitude Percent Decrement: None
[5]; Peroneal nerve, case 2, control 2.7 mV
  MAP Amplitude Lowest on Taxol: 2.7 mV
[5]; Ulnar nerve, case 1
  MAP Amplitude Percent Decrement: None
  SAP Amplitude Percent Decrement: 62%
[5]; Ulnar nerve, case 1, control 6.9 mV
  MAP Amplitude Lowest on Taxol: 7.1 mV
[5]; Median nerve, case 2, control 69 μV
  SAP Amplitude Lowest on Taxol: 60 μV
[5]; Sural nerve, case 1
  SAP Amplitude Percent Decrement: 75%
[5]; Sural nerve, case 1, control 8 μV
  SAP Amplitude Lowest on Taxol: 2 μV
[5]; Sural nerve, case 2
  SAP Amplitude Percent Decrement: 44%
[5]; Sural nerve, case 2, control 32 μV
  SAP Amplitude Lowest on Taxol: 18 μV
[5]; Ulnar nerve, case 1, control 19 μV
  SAP Amplitude Lowest on Taxol: 6 μV
